From patent US12606533B2, “3-phenylpropylamine derivative” (DAIICHI SANKYO COMPANY, LIMITED, priority 2023, dated 2026)

What was measured:
mouse uterus = test: Inhibitory activity on normal mouse uterine weight (inhibitory action on estrogen activity); assay type: in vivo; details: female NSG mice, oral 100 mg/kg/day QD x 8, 24 hr after final administration, relative to vehicle control group
Protocol: Female NSG mice were purchased from Charles River Japan, Inc. From the day of grouping, each compound was orally administered at a dose of 100 mg/kg/day once a day for 8 consecutive days (QD×8). To the vehicle-control group was administered 0.5% methylcellulose. 24 hr after the final administration, the wet weight of the mouse uterus was measured, and the relative uterine weight (%) to the vehicle control group was calculated by the following formula.
The relative uterine weight (unit: %) of the compound corresponding to each Example No. to the vehicle control group is shown in Table 100.

SF-1 = target: T1, SF-1 (Homo sapiens, UniProt Q13285); test: SF1 degradation induction in NCI-H295R SF-1-HiBiT cells (HiBiT DC50); assay type: cell-based; details: 24 hr, concentration that induces 50% degradation of SF-1
T1 construct: NCI-H295R SF-1-HiBiT cells with HiBiT tag knocked in at the endogenous SF1 locus; host or cells: NCI-H295R SF-1-HiBiT (knock-in at endogenous locus)
In short: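 NCI-H295R cells carrying HiBiT-tagged SF-1, plated and grown 24 hr, then exposed to serially diluted compounds for 24 hr at 37° C. Remaining SF-1 read by lytic HiBiT luminescence; degradation rate from treated vs compound-free signal, DC50 as concentration giving 50% degradation.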

[1] = system: NCI-H295R cell subcutaneous transplant model; test: Antitumor activity against NCI-H295R cell subcutaneous transplant model (adrenocortical carcinoma); assay type: in vivo, mouse; details: female NSG mice, oral 30 mg/kg/day QD x 10 to 11, day the test was terminated
Protocol: NCI-H295R cells were subcutaneously transplanted at 1.0 to 2.0×10^7 cells/head into the right flank of female NSG mice and, when the estimated tumor volume (major axis×minor axis×minor axis/2) reached 100 to 300 mm^3, the mice were divided into groups of 4 to 5 mice each such that no difference was present between groups. Female NSG mice were purchased from Charles River Japan Co., Ltd. From the day of grouping, each compound was orally administered at a dose of 30 mg/kg/day once a day for 10 to 11 consecutive days (QD×10 to 11). Individual estimated tumor volumes were measured from the day of grouping until 11 to 12 days after grouping (the day the test was terminated). To the vehicle-control group was administered 0.5% methylcellulose containing 6.2-6.4 mM mesylic acid.
The antitumor activity against the NCI-H295R cell subcutaneous transplant model in Experimental Example 5 was calculated by the following formula on the day the test was terminated.

[2] = system: xenograft model derived from a prostate cancer patient; test: Antitumor activity in human prostate cancer cell subcutaneous transplant model (patient-derived xenograft); assay type: in vivo, mouse; details: male NSG mice, oral 100 mg/kg/day QD x 28 to 32, day of completion of test
Description: A xenograft model derived from a prostate cancer patient (obtained from the National Institute of Biomedical Innovation (NIBIO)) was used for antitumor evaluation. Tumors excised from seed mice were cut into about 4-5 mm squares and subcutaneously transplanted into the right flank of male NSG mice. On the fourth day after transplantation, the mice were divided into groups of 8 to 10 mice each to ensure uniformity of the seed mice. From the day of grouping, each compound was orally administered once a day at a dose of 100 mg/kg/day for 28 to 32 consecutive days (QD x 28 to 32). Individual estimated tumor volumes were measured from the day of grouping until the day after the final administration (the day of completion of test). To the vehicle-control group was administered 0.5% methylcellulose containing 21.3 mM mesylic acid.
The antitumor activity in the human prostate cancer cell subcutaneous transplant model was calculated by the following formula on the day of completion of each test.

NCI-H295R cells = test: Proliferation inhibitory action on NCI-H295R (CellTiter-Glo, 7 days); assay type: cell-based, human; details: Homo sapiens, NCI-H295R, 168 h
In short: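 Compounds serially diluted in DMSO; cells seeded at 2×10^3 cells/well and cultured 7 days at 37° C, 5% CO2. CellTiter-Glo 2.0 luminescence read at day 0 and day 7; proliferation rate derived from compound-addition-day signal, untreated day-7 signal and treated day-7 signal.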

CYP21A2 = test: Changes in SF1 target gene expression for NCI-H295R: CYP21A2 mRNA (qPCR); assay type: cell-based; details: Homo sapiens, NCI-H295R cells, 24 hr
Protocol: (§1) NCI-H295R cells were cultured in a 5% CO2 incubator at 37° C. using DMEM/F12 medium (Thermo Fisher Scientific Inc.) containing 2.5% Nu-Serum (registered trademark) Growth Medium Supplement (Corning) and 1% Corning ITS+ Premix Universal Culture Supplement (Corning). The DMSO solution of each compound was serially diluted with DMSO using a D300e Digital Dispenser (TECAN), and the compounds were added to a 96-well plate (FALCON). NCI-H295R cells were seeded at 1×10^4 cells/50 μL/well on the 96-well plate containing the compounds added thereto, and cultured for 24 hr in a 5% CO2 incubator at 37° C. The final DMSO concentration in the medium was adjusted to 0.1% (v/v) in all cases, and the concentration range of the compounds was set to 1000 nM to 0.32 nM with a common ratio […]. After the completion of culture, the medium was discarded, 50 μL/well of chilled D-PBS (Sigma Aldrich) was added to wash the cells, and D-PBS was discarded. After washing, 25 μL/well of Cells-to-CT (registered trademark) Bulk Lysis Reagents (Thermo Fisher Scientific, Inc.) was added to the wells, the mixture was stirred for 5 min with a plate mixer, and 2.5 μL/well of the reaction quenching liquid was added to prepare cell lysate. The cell lysate was dispensed into a 96-well plate (Corning) at 10 μL/well, and 40 μL/well of Cells-to-CT Bulk RT Reagents (Thermo Fisher Scientific, Inc.) was added. A reverse transcription reaction was performed at 37° C. for 50 min using a thermal cycler, and the reverse transcriptase was inactivated by heating at 95° C. for 5 min, and then stored at 10° C. PrimeTime (registered trademark) Gene Expression Master Mix (Integrated DNA Technologies), the target genes CYP11A1, CYP17A1, CYP21A2, or STAR, and the control gene ACTB PrimeTime (registered trademark) qPCR Probe Assays (Integrated DNA Technologies), and Nuclease free water were mixed at a ratio of 20:1:1:10 to prepare a PrimerProbe mix. The prepared PrimerProbe mix was added to a 384-well plate at 8 μL/well, and the cDNA obtained by reverse transcription was added at 2 μL/well. Real-Time PCR was performed under fast cycling conditions (95° C. for 3 min, followed by 40 cycles of 95° C. for 5 seconds and 62° C. for 30 seconds) to measure the fluorescent signal. The obtained data was analyzed using GraphPad Prism9 (GraphPad Software Inc.) to calculate the concentration (IC50 value) that reduces the mRNA expression level by 50%. The IC50 values (unit: nM) for CYP11A1, CYP17A1, CYP21A2, and STAR, of the compounds corresponding to each Example number are shown in Table 94.

CYP11A1 = test: Changes in SF1 target gene expression for NCI-H295R: CYP11A1 mRNA (qPCR); assay type: cell-based; details: Homo sapiens, NCI-H295R cells, 24 hr
Protocol: as §1

STAR = test: Changes in SF1 target gene expression for NCI-H295R: STAR mRNA (qPCR); assay type: cell-based; details: Homo sapiens, NCI-H295R cells, 24 hr
Protocol: as §1

SF1-LBD = SF1-LBD (Homo sapiens, UniProt Q13285); test: Inhibitory activity against binding of DAX1 to SF1-LBD (AlphaLISA); details: inhibition of binding of DAX1 peptide to His-SF1-LBD, read-out: cell-free SF1 IC50
Protocol: The binding activity of each compound to the SF-1 ligand binding domain (LBD) was evaluated using the binding inhibitory activity of each compound against binding of DAX1 to SF1-LBD as an index. 100 nM His-SF1-LBD, 2 nM Biotin-DAX1 peptide (Biotin-[…]-NH2) and each compound (8-point i1 dilution series with common ratio 2 from final concentration 2 μM) were mixed in assay buffer [25 mM HEPES (pH 7.5), 100 mM NaCl, 0.1% BSA, 0.01% CHAPS, 1 mM DTT] and reacted at room temperature for 30 min. Anti-6×His AlphaLISA Acceptor beads and Streptavidin-coated AlphaScreen Donor beads were mixed to a final concentrations of 5 μg/ml and 10 μg/ml, respectively, and reacted in the dark at room temperature for 60 min. AlphaLISA signals were detected using a multimode plate reader (EnVision Xcite, PerkinElmer). The binding rate of DAX1 peptide to SF1 was calculated from the luminescence amount (C) of the compound-free group and the luminescence amount (T) of the compound-added group, based on the following formula.
The DAX1 peptide binding rate at each concentration was analyzed using GraphPad Prism6 (GraphPad Software Inc.) to calculate the concentration (IC50 value) of each compound that inhibits 50% of the binding of DAX1 to SF1-LBD.

CYP17A1 = test: Changes in SF1 target gene expression for NCI-H295R: CYP17A1 mRNA (qPCR); assay type: cell-based; details: Homo sapiens, NCI-H295R cells, 24 hr
Protocol: as §1

Sequence of SF1-LBD (Q13285 222-459 limits assumed): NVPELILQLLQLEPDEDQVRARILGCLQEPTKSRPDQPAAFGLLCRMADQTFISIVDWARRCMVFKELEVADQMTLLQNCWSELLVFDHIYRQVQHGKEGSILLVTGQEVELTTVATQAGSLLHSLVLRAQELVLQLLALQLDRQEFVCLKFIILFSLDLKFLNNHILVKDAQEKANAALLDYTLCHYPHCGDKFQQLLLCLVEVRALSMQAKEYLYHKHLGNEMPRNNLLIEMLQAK

| IC50 (CYP21A2) [nM] | IC50 (CYP11A1) [nM] | IC50 (STAR) [nM] | IC50 (SF1-LBD) [nM] | IC50 (CYP17A1) [nM] | Structure (SMILES) | relative uterine weight (%) (mouse uterus) | DC50 (SF-1) [nM] | tumor growth inhibition rate (%) [1] [%] | tumor growth inhibition rate (%) [2] [%] | GI50 (NCI-H295R cells) [nM] |
| --- | --- | --- | --- | --- | --- | --- | --- | --- | --- | --- |
|  |  |  |  |  | COc1ccc([C@]2(CCN(Cc3ccc(C4=CC[C@H](C(=O)N5CCC(Nc6ccc7c8c6CCCn8c(=O)n7C6CCC(=O)NC6=O)CC5)CC4)c(F)c3)CC(C)(C)C(F)(F)F)CCOC(C)(C)C2)cc1 (stereo partly drawn) [BK9, 3-{7-[(1-{[(4R)-2′-Fluoro-4′-{[{2-[(4R)-4-(4-methoxyphenyl)-2,2-dimethyltetrahydro-2H-pyran-4-yl]ethyl)(3,3,3-trifluoro-2,2-dimethylpropyl)amino]methyl}-2,3,4,5-tetrahydro[biphenyl]-4-yl]carbonyl}piperidin-4-yl)amino]-2-oxo-5,6-dihydro-4H-imidazo[4,5,1-ij]quinolin-1(2H)-yl}piperidine-2,6-dione] | 56 | 3.2 | 131 | 43 | 24 |
|  |  |  |  |  | COc1ccc([C@]2(CCN(Cc3ccc(C4=CC[C@H](CN5CCN(C(=O)c6ccc7c8c6CCCn8c(=O)n7C6CCC(=O)NC6=O)CC5)CC4)cc3)CC(C)(C)C(F)(F)F)CCOC(C)(C)C2)cc1 (stereo partly drawn) [AW5, 3-{7-[(4-{[(4R)-4′-{[{2-[(4R)-4-(4-Methoxyphenyl)-2,2-dimethyltetrahydro-2H-pyran-4-yl]ethyl)(3,3,3-trifluoro-2,2-dimethylpropyl)amino]methyl}-2,3,4,5-tetrahydro[biphenyl]-4-yl]methyl}piperazin-1-yl)carbonyl]-2-oxo-5,6-dihydro-4H-imidazo[4,5,1-ij]quinolin-1(2H)-yl}piperidine-2,6-dione] | 74 | 12 | 109 | 10 | 85 |
|  |  |  |  |  | COc1ccc([C@]2(CCN(Cc3ccc(C4=CC[C@H](CN5CCN(C(=O)c6ccc7c8c6NCCn8c(=O)n7C6CCC(=O)NC6=O)CC5)CC4)cc3)CC(C)(C)C(F)(F)F)CCOC(C)(C)C2)cc1 (stereo partly drawn) [BY7, 3-{7-[(4-{[(4R)-4′-{[{2-[(4R)-4-(4-Methoxyphenyl)-2,2-dimethyltetrahydro-2H-pyran-4-yl]ethyl)(3,3,3-trifluoro-2,2-dimethylpropyl)amino]methyl}-2,3,4,5-tetrahydro[biphenyl]-4-yl]methyl}piperazin-1-yl)carbonyl]-2-oxo-5,6-dihydro-4H-imidazo[1,5,4-de]quinoxalin-1(2H)-yl}piperidine-2,6-dione] | 42 | 7.3 | 118 | 38 | 54 |
| 39 | 25 | 37 | 32 | 80 | COc1ccc(C2(CCN(Cc3ccc(O[C@H]4CC[C@H](C(=O)NS(=O)(=O)N(C)C)CC4)cc3)C(=O)C(C)(C)C)CCOC(C)(C)C2)cc1 (stereo partly drawn) [Example H1, Trans-4-(4-{[(2,2-dimethylpropanoyl) {2-[4-(4-methoxyphenyl)-2,2-dimethyltetrahydro-2H-pyran-4-yl]ethyl}amino]methyl}phenoxy)-N-(dimethylsulfamoyl)cyclohexanecarboxamide] |  |  |  |  |  |
| 82 | 35 | 75 | 36 | 211 | COc1ccc(C2(CCN(Cc3ccc(O[C@H]4CC[C@H](C(=O)O)CC4)cc3)c3ncc(F)cn3)CCOC(C)(C)C2)cc1 (stereo partly drawn) [Example O2, Trans-4-(4-{[(5-fluoropyrimidin-2-yl) {2-[4-(4-methoxyphenyl)-2,2-dimethyltetrahydro-2H-pyran-4-yl]ethyl}amino]methyl}phenoxy)cyclohexanecarboxylic acid] |  |  |  |  |  |
| 9.8 | 4.4 | 19 | 30 | 137 | COc1ccc([C@]2(CCN(Cc3ccc(Oc4ccc(C(C)C(=O)O)cc4)cc3)CC(C)(C)C(F)(F)F)CCOC(C)(C)C2)cc1 (stereo partly drawn) [Example P3, 2-[4-(4-{[{2-[(4R)-4-(4-Methoxyphenyl)-2,2-dimethyltetrahydro-2H-pyran-4-yl]ethyl}(3,3,3-trifluoro-2,2-dimethylpropyl)amino]methyl}phenoxy)phenyl]propanoic acid] |  |  |  |  |  |
